How the values were obtained:
Type in all cases: in vivo
[1] = test system: four weed species (ALOMY, AVEFA, LOLPE, SETVI); test: Glasshouse weed test, pinoxaden with adjuvants, mean across species; details: mean over two rates
Experimental: (§1) The aromatic ester Finsolv® TN (C12-C15 alkyl benzoate) was tested in a glasshouse against four weed species using the herbicide pinoxaden. An agrochemical composition was prepared containing 0.2% v/v of the adjuvant in a track sprayer and was applied at a volume of 200 liters per hectare. Pinoxaden was applied at either 7.5 or 15 grams of pesticide per hectare on each of the weed species. […] The weed species and their growth stage at spraying were Alopecurus myosuroides (ALOMY; growth stage 13), Avena fatua (AVEFA; growth stage 12); Lolium perenne (LOLPE; growth stage 13), Setaria viridis (SETVI; growth stage 14).
(§2) Each spray test was replicated three times. The efficacy of the herbicide was assessed visually and expressed as a percentage of the leaf area killed. Samples were assessed at time periods of 7, 14 and 20 days following application. The results shown in Table 12 below are mean averages over the two rates of pinoxaden, three replicates and the three assessment timings, and are compared to the efficacy of pinoxaden in the absence of an adjuvant and pinoxaden in the presence of triethylhexyl phosphate.
A second experiment was conducted to assess the efficacy of Finsolv® TN as an adjuvant for pinoxaden. This was carried out as outlined above, with the following change: samples were assessed at 14 and 20 days post application. The results shown below in Table 13 are mean averages over the two rates of pinoxaden, three replicates, the two assessment timings, and the four weed species, and are compared to the efficacy of pinoxaden in the absence of an adjuvant and pinoxaden in the presence of the common adjuvant methyl oleate.
(§3) An agrochemical composition was prepared containing 0.2% v/v of the adjuvant in a track sprayer and was applied at a volume of 200 liters per hectare. Pinoxaden was applied at either 7.5 or 15 grams of pesticide per hectare on each of the weed species. […] The weed species and their growth stage at spraying were Alopecurus myosuroides (ALOMY; growth stage 13), Avena fatua (AVEFA; growth stage 12); Lolium perenne (LOLPE; growth stage 13), Setaria viridis (SETVI; growth stage 14).
Each spray test was replicated three times. The efficacy of the herbicide was assessed visually and expressed as a percentage of the leaf area killed. Samples were assessed at time periods of 7, 14 and 20 days following application. The results shown in Table 17 below are mean averages over the two rates of pinoxaden, three replicates and the three assessment timings, and are compared to the efficacy of pinoxaden in the absence of an adjuvant and pinoxaden in the presence of Brij®96.
as §3, with “hectare. The adjuvant oils were emulsified using a small amount of the surfactant Pluronic® PE 10500, which was present in the composition at a concentration of 0.02% v/v.” for “hectare.”, “13-14).” for “14).”
Each spray test was replicated three times. The efficacy of the herbicide was assessed visually and expressed as a percentage of the leaf area killed. Samples were assessed at time periods of 14 and 21 days following application. The results shown in Table 18 below are mean averages over the two rates of pinoxaden, three replicates and the two assessment timings, and are compared to the efficacy of pinoxaden in the absence of an adjuvant and pinoxaden in the presence of tris 2ethylhexylphosphate (TEHP).
The aromatic esters Finsolv® TN and the aromatic ester ethoxylate Dermol 25-3B were tested in a glasshouse against four weed species using the herbicide pinoxaden. […]

[2] = test system: Setaria viridis (SETVI); test: Glasshouse weed test, pinoxaden with adjuvants; details: Table 12, Example 8: pinoxaden 7.5 or 15 g/ha; adjuvant 0.2% v/v; Atlas G5000 in spray tank; mean over two rates, three replicates, 7, 14 and 20 days
Experimental: as §1, §2

[3] = test system: Alopecurus myosuroides (ALOMY); test: Glasshouse weed test, pinoxaden with adjuvants; details: Table 12, Example 8: pinoxaden 7.5 or 15 g/ha; adjuvant 0.2% v/v; Atlas G5000 in spray tank; mean over two rates, three replicates, 7, 14 and 20 days
Experimental: as §1, §2

[4] = test system: Lolium perenne (LOLPE); test: Glasshouse weed test, pinoxaden with adjuvants; details: Table 12, Example 8: pinoxaden 7.5 or 15 g/ha; adjuvant 0.2% v/v; Atlas G5000 in spray tank; mean over two rates, three replicates, 7, 14 and 20 days
Experimental: as §1, §2

[5] = test system: Avena fatua (AVEFA); test: Glasshouse weed test, pinoxaden with adjuvants; details: Table 12, Example 8: pinoxaden 7.5 or 15 g/ha; adjuvant 0.2% v/v; Atlas G5000 in spray tank; mean over two rates, three replicates, 7, 14 and 20 days
Experimental: as §1, §2

[6] = test system: four weed species (ABUTH, CHEAL, DIGSA, SETVI); test: Glasshouse weed test, nicosulfuron with adjuvants, mean across species; details: Table 27, Example 24: nicosulfuron 30 or 60 g/ha; mean over two rates, three replicates, 14 and 21 days
Experimental: The aromatic ester Finsolv® TN (C12-C15 alkyl benzoate) was tested in a glasshouse against four weed species using the herbicide nicosulfuron. An agrochemical composition was prepared containing 0.2% v/v of the adjuvant in a track sprayer, and was applied at a volume of 200 liters per hectare. Nicosulfuron was applied at either 30 or 60 grams of pesticide per hectare on each of the weed species. The weed species and their growth stage at spraying were Abutilon theophrasti (ABUTH; growth stage 13), Chenopodium album (CHEAL; growth stage 14), Digitaria sanguinalis (DIGSA; growth stage 13), and Setaria viridis (SETVI; growth stage 13).
Each spray test replicated three times. The efficacy of the herbicide was assessed visually and expressed as a percentage of the leaf area killed. Samples were assessed at time periods of 7, 14 and 20 days following application. The results shown in Table 6 below are mean averages over the two rates of nicosulfuron, three replicates and the three assessment timings, and are compared to the efficacy of nicosulfuron in the absence of an adjuvant, and nicosulfuron in the presence of the commercially available tank-mix adjuvant, Atplus411F®.
A second experiment was conducted to assess the efficacy of Finsolv® TN as an adjuvant in compositions of nicosulfuron. This was carried out as outlined above, with the following change: samples were assessed at 14 and 20 days post application.
The results shown in Table 7 below are mean averages over the two rates of nicosulfuron, three replicates and the two assessment timings, and are compared to the efficacy of nicosulfuron in the absence of an adjuvant, and nicosulfuron in the presence of the commercially available tank-mix adjuvant, Atplus411F®.
The aromatic esters Benzoate 1 (see Example 9), Benzoflex 354 (2,2,4-trimethyl-1,3-pentanediol dibenzoate) and Finsolv® SB (stearyl benzoate) were tested in a glasshouse against four weed species using the herbicide nicosulfuron. Nicosulfuron was applied at either 30 or 60 grams of pesticide per hectare on each of the weed species. The weed species and their growth stage at spraying were Abutilon theophrasti (ABUTH; growth stage 13), Chenopodium album (CHEAL; growth stage 14), Digitaria sanguinalis (DIGSA; growth stage 13), and Setaria viridis (SETVI; growth stage 13).
Each spray test replicated three times. The efficacy of the herbicide was assessed visually and expressed as a percentage of the leaf area killed. Samples were assessed at time periods of 14 and 20 days following application. The results shown in Table 14 below are mean averages over the two rates of nicosulfuron, three replicates and the two assessment timings, and are compared to the efficacy of nicosulfuron in the absence of an adjuvant, and nicosulfuron in the presence of the commercially available tank-mix adjuvant, Atplus411F®.
An agrochemical composition was prepared containing 0.2% v/v of the adjuvant in a track sprayer and was applied at a volume of 200 liters per hectare. The adjuvant oils were emulsified using a small amount of the surfactant Pluronic® PE 10500, which was present in the composition at a concentration of 0.02% v/v. Nicosulfuron was applied at either 30 or 60 grams of pesticide per hectare on each of the weed species. The weed species and their growth stage at spraying were Abutilon theophrasti (ABUTH; growth stage 13), Chenopodium album (CHEAL; growth stage 14-15), Digitaria sanguinalis (DIGSA; growth stage 14), and Setaria viridis (SETVI; growth stage 13-14).
Each spray test replicated three times. The efficacy of the herbicide was assessed visually and expressed as a percentage of the leaf area killed. Samples were assessed at time periods of 14 and 21 days following application. […]

CCc1cc(C)cc(CC)c1-c1c(OC(=O)C(C)(C)C)n2n(c1=O)CCOCC2 [Pinoxaden, pinoxaden]
Mean percentage kill, Mean across species ([1]; Table 12, Example 8: pinoxaden 7.5 or 15 g/ha, adjuvant 0.2% v/v, Atlas G5000 in spray tank, three replicates, 7, 14 and 20 days): 2.43 B % | Mean percentage kill, Mean across species ([1]; Table 13, Example 8 second experiment: pinoxaden 7.5 or 15 g/ha, adjuvant 0.2% v/v, three replicates, 14 and 20 days, four weed species): 0.5 B % | Mean percentage kill, Mean across species ([1]; Table 17, Example 13: pinoxaden 7.5 or 15 g/ha, adjuvant 0.2% v/v, Atlas G5000 in spray tank, three replicates, 7, 14 and 20 days): 1.8 C % | Mean percentage kill, Mean across species ([1]; Table 18, Example 14: pinoxaden 7.5 or 15 g/ha, adjuvant 0.2% v/v emulsified with Pluronic PE 10500 0.02% v/v, three replicates, 14 and 21 days): 2.6B % | Mean percentage kill, Mean across species ([1]; Table 22, Example 18: absence of an adjuvant, pinoxaden 7.5 or 15 g/ha, three replicates, 14 and 21 days): 3.6E % | Mean percentage kill, Mean across species ([1]; Table 26, Example 23: pinoxaden 7.5 or 15 g/ha, adjuvant 0.2% v/v, Atlas G5000, three replicates, 14 and 21 days): 4.0C % | Mean percentage kill, Mean across species ([1]; Table 32, Example 32: pinoxaden 7.5 or 15 g/ha, adjuvant 0.2% v/v, Atlas G5000, three replicates, 14 and 21 days): 3.6B % | Mean percentage kill SETVI [2]: 0.8 B % | Mean percentage kill ALOMY [3]: 1.1 B % | Mean percentage kill LOLPE [4]: 5.0 B % | Mean percentage kill AVEFA [5]: 2.8 B % | Mean percentage kill, Mean across species [6]: 46.6C %

Reference: patent US10206388B2, “Formulation component” (SYNGENTA LIMITED, priority 2011, dated 2019)
